Source: article PMC10017428, “Structure of VanS from vancomycin-resistant enterococci: A sensor kinase with weak ATP binding” (The Journal of Biological Chemistry, 2023)

Tests used:
VanSC CA domain [1] = target: T1, VanSC CA domain (Enterococcus gallinarum, UniProt Q9KJT3); experiment: biochemical
EnvZ CA domain = EnvZ CA domain (Escherichia coli, UniProt P0AEJ4); experiment: biochemical
VanSA CA domain [2] = target: T2, VanSA CA domain (Enterococcus faecium, UniProt Q06240); experiment: biochemical
T2 construct: gene vanS
T2 sequence (Q06240 221-384): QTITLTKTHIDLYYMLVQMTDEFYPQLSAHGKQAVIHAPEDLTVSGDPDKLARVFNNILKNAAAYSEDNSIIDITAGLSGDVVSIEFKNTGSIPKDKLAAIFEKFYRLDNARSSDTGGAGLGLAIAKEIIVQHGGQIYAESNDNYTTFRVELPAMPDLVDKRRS

VanSA CA domain [3] = target: T2, VanSA CA domain; experiment: TNP-ATP displacement, fluorescence; assay type: binding; conditions: 50 mM Tris-Cl pH 7.5, 50 mM KCl, 5 mM MgCl2, 10 μM TNP-ATP; competitive
VanSC CA domain [4] = target: T1, VanSC CA domain; experiment: TNP-ATP displacement, fluorescence; assay type: binding; conditions: 50 mM Tris-Cl pH 7.5, 50 mM KCl, 5 mM MgCl2, 10 μM TNP-ATP; competitive

T1 sequence (Q9KJT3 208-361): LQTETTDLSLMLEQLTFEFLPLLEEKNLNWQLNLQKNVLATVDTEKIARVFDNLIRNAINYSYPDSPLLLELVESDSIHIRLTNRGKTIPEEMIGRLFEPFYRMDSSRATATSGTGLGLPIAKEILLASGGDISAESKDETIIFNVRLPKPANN
Chain of EnvZ CA domain (P0AEJ4 289-450): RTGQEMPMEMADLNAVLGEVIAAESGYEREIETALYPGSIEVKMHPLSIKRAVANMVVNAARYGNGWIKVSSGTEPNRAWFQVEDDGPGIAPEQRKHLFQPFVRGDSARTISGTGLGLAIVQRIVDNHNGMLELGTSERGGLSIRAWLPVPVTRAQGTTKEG

| SMILES | Kd (VanSC CA domain [1]) | Kd (EnvZ CA domain) | Kd (VanSA CA domain [2]) | TNP-ATP displacement, fluorescence (VanSA CA domain [3]) | TNP-ATP displacement, fluorescence (VanSC CA domain [4]) |
| --- | --- | --- | --- | --- | --- |
| Nc1ncnc2c1ncn2[C@@H]1O[C@H](COP(=O)(O)OP(=O)(O)OP(=O)(O)O)[C@@H](O)[C@H]1O [ATP] | 3.128 ± 0.0004 mM | 0.0833 ± 0.0002 mM | 3.948 ± 0.001 mM |  |  |
| Nc1nc2c(ncn2[C@@H]2O[C@H](COP(=O)(O)OP(=O)(O)OP(=O)(O)O)[C@@H](O)[C@H]2O)c(=O)[nH]1 [GTP] |  |  |  | GTP bound less tightly than ATP to both VanSA and VanSC | GTP bound less tightly than ATP to both VanSA and VanSC |
